{"source": "PubChem BioAssay AID250", "about": "(DTP/NCI, 2004)", "system": "BDF1 mice, L1210 leukemia sc, survival T/C", "assay": "NCI In Vivo Anticancer Drug Screen. Data for tumor model L1210 Leukemia (subcutaneous) in B6D2F1 (BDF1) mice", "conditions": "higher = longer survival", "summary_of_the_method": "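Tumors were transplanted into mice, the animals were treated with compound, survival or tumor size was then measured, and treated values were divided by vehicle-control values.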", "key": {"[1]": {"conditions": "endpoint: median survival time, dose: 39.0 mg/kg/injection, schedule: Q01DX Z (sc), vehicle: methylcellulose (MC)"}, "[2]": {"conditions": "endpoint: median survival time, dose: 39.0 mg/kg/injection, schedule: Q01DX Z (sc), vehicle: water"}, "[3]": {"conditions": "endpoint: median survival time, dose: 65.0 mg/kg/injection, schedule: Q01DX Z (sc), vehicle: methylcellulose (MC)"}, "[4]": {"conditions": "endpoint: median survival time, dose: 65.0 mg/kg/injection, schedule: Q01DX Z (sc), vehicle: water"}, "[5]": {"conditions": "endpoint: median survival time, dose: 108.0 mg/kg/injection, schedule: Q01DX Z (sc), vehicle: methylcellulose (MC)"}, "[6]": {"conditions": "endpoint: median survival time, dose: 108.0 mg/kg/injection, schedule: Q01DX Z (sc), vehicle: water"}, "[7]": {"conditions": "endpoint: median survival time, dose: 180.0 mg/kg/injection, schedule: Q01DX Z (sc), vehicle: methylcellulose (MC)"}, "[8]": {"conditions": "endpoint: median survival time, dose: 180.0 mg/kg/injection, schedule: Q01DX Z (sc), vehicle: water"}, "[9]": {"conditions": "endpoint: median survival time, dose: 300.0 mg/kg/injection, schedule: Q01DX Z (sc), vehicle: methylcellulose (MC)"}, "[10]": {"conditions": "endpoint: median survival time, dose: 500.0 mg/kg/injection, schedule: Q01DX Z (sc), vehicle: methylcellulose (MC)"}}, "note": "Values joined by “and” are separate entries in the source; they are usually repeats but may differ in a detail not shown here. Identical values can stand only once. Inconclusive results and toxic doses are left out.", "data": [{"compound": "OCC1OC(n2cnc3cc(Cl)c(Cl)cc32)C(O)C1O", "note": "(stereo not given)", "values": [{"measurement": "T/C", "setting": "endpoint: median survival time, dose: 23.0 mg/kg/injection, schedule: Q01DX Z (sc), vehicle: methylcellulose (MC)", "value": "95 % of control"}, {"measurement": "T/C", "setting": "endpoint: median survival time, dose: 23.0 mg/kg/injection, schedule: Q01DX Z (sc), vehicle: water", "value": "95 % of control"}, {"measurement": "T/C", "setting": "[1]", "value": "95 % of control"}, {"measurement": "T/C", "setting": "[2]", "value": "105 % of control"}, {"measurement": "T/C", "setting": "[3]", "value": "100 % of control"}, {"measurement": "T/C", "setting": "[4]", "value": "100 % of control"}, {"measurement": "T/C", "setting": "[5]", "value": "90 % of control and 100 % of control"}, {"measurement": "T/C", "setting": "[6]", "value": "95 % of control"}, {"measurement": "T/C", "setting": "[7]", "value": "100 % of control and 105 % of control"}, {"measurement": "T/C", "setting": "[8]", "value": "100 % of control"}, {"measurement": "T/C", "setting": "[9]", "value": "105 % of control"}, {"measurement": "T/C", "setting": "[10]", "value": "100 % of control"}]}, {"compound": "CC[n+]1c(-c2ccccc2)c2cc(N)ccc2c2ccc(N)cc21", "values": [{"measurement": "T/C", "setting": "endpoint: median survival time, dose: 39.0 mg/kg/injection, schedule: Q01DX Z (sc), vehicle: carboxymethylcellulose (CMC)", "value": "110 % of control"}, {"measurement": "T/C", "setting": "endpoint: median survival time, dose: 65.0 mg/kg/injection, schedule: Q01DX Z (sc), vehicle: carboxymethylcellulose (CMC)", "value": "115 % of control"}, {"measurement": "T/C", "setting": "endpoint: median survival time, dose: 108.0 mg/kg/injection, schedule: Q01DX Z (sc), vehicle: carboxymethylcellulose (CMC)", "value": "95 % of control"}]}, {"compound": "O=C1OC(C(O)CO)C(O)=C1O", "note": "(stereo not given)", "values": [{"measurement": "T/C", "setting": "endpoint: mean survival time, dose: 0.2 mg/kg/injection, schedule: Q08HX010 (ip), vehicle: other", "value": "91 % of control"}, {"measurement": "T/C", "setting": "endpoint: mean survival time, dose: 0.25 mg/kg/injection, schedule: Q08HX010 (ip), vehicle: other", "value": "95 % of control"}, {"measurement": "T/C", "setting": "endpoint: mean survival time, dose: 0.3 mg/kg/injection, schedule: Q08HX010 (ip), vehicle: other", "value": "93 % of control"}, {"measurement": "T/C", "setting": "endpoint: mean survival time, dose: 0.5 mg/kg/injection, schedule: Q08HX010 (ip), vehicle: other", "value": "84 % of control"}]}, {"compound": "COc1ccc(/C=N/NC(N)=S)cc1", "values": [{"measurement": "T/C", "setting": "[1]", "value": "95 % of control"}, {"measurement": "T/C", "setting": "[2]", "value": "100 % of control"}, {"measurement": "T/C", "setting": "[3]", "value": "100 % of control"}, {"measurement": "T/C", "setting": "[4]", "value": "100 % of control"}, {"measurement": "T/C", "setting": "[5]", "value": "100 % of control"}, {"measurement": "T/C", "setting": "[6]", "value": "100 % of control"}, {"measurement": "T/C", "setting": "[7]", "value": "95 % of control"}, {"measurement": "T/C", "setting": "[8]", "value": "100 % of control"}, {"measurement": "T/C", "setting": "endpoint: median survival time, dose: 216.0 mg/kg/injection, schedule: Q01DX Z (sc), vehicle: water", "value": "100 % of control"}, {"measurement": "T/C", "setting": "[9]", "value": "100 % of control"}, {"measurement": "T/C", "setting": "endpoint: median survival time, dose: 300.0 mg/kg/injection, schedule: Q01DX Z (sc), vehicle: water", "value": "100 % of control"}, {"measurement": "T/C", "setting": "endpoint: median survival time, dose: 360.0 mg/kg/injection, schedule: Q01DX Z (sc), vehicle: water", "value": "111 % of control"}, {"measurement": "T/C", "setting": "[10]", "value": "100 % of control"}, {"measurement": "T/C", "setting": "endpoint: median survival time, dose: 500.0 mg/kg/injection, schedule: Q01DX Z (sc), vehicle: water", "value": "100 % of control"}, {"measurement": "T/C", "setting": "endpoint: median survival time, dose: 600.0 mg/kg/injection, schedule: Q01DX Z (sc), vehicle: water", "value": "105 % of control"}, {"measurement": "T/C", "setting": "endpoint: median survival time, dose: 1000.0 mg/kg/injection, schedule: Q01DX Z (sc), vehicle: water", "value": "111 % of control"}]}, {"compound": "Cn1cnc([N+](=O)[O-])c1Sc1ncnc2nc[nH]c12", "values": [{"measurement": "T/C", "setting": "endpoint: median survival time, dose: 3.0 mg/kg/injection, schedule: Q01DX Z (oral), vehicle: methylcellulose (MC)", "value": "100 % of control"}, {"measurement": "T/C", "setting": "endpoint: median survival time, dose: 5.0 mg/kg/injection, schedule: Q01DX Z (sc), vehicle: methylcellulose (MC)", "value": "100 % of control"}, {"measurement": "T/C", "setting": "endpoint: median survival time, dose: 8.4 mg/kg/injection, schedule: Q01DX Z (sc), vehicle: methylcellulose (MC)", "value": "100 % of control"}, {"measurement": "T/C", "setting": "endpoint: median survival time, dose: 14.0 mg/kg/injection, schedule: Q01DX Z (sc), vehicle: methylcellulose (MC)", "value": "100 % of control"}, {"measurement": "T/C", "setting": "endpoint: median survival time, dose: 23.0 mg/kg/injection, schedule: Q01DX Z (oral), vehicle: methylcellulose (MC)", "value": "100 % of control"}, {"measurement": "T/C", "setting": "endpoint: median survival time, dose: 28.0 mg/kg/injection, schedule: Q01DX Z (sc), vehicle: methylcellulose (MC)", "value": "110 % of control"}, {"measurement": "T/C", "setting": "endpoint: median survival time, dose: 39.0 mg/kg/injection, schedule: Q01DX Z (oral), vehicle: methylcellulose (MC)", "value": "100 % of control"}, {"measurement": "T/C", "setting": "[1]", "value": "100 % of control"}, {"measurement": "T/C", "setting": "endpoint: median survival time, dose: 47.0 mg/kg/injection, schedule: Q01DX Z (sc), vehicle: methylcellulose (MC)", "value": "115 % of control"}, {"measurement": "T/C", "setting": "endpoint: median survival time, dose: 65.0 mg/kg/injection, schedule: Q01DX Z (oral), vehicle: methylcellulose (MC)", "value": "100 % of control"}, {"measurement": "T/C", "setting": "endpoint: median survival time, dose: 78.0 mg/kg/injection, schedule: Q01DX Z (sc), vehicle: methylcellulose (MC)", "value": "120 % of control"}, {"measurement": "T/C", "setting": "endpoint: median survival time, dose: 360.0 mg/kg/injection, schedule: Q01DX Z (sc), vehicle: methylcellulose (MC)", "value": "110 % of control"}, {"measurement": "T/C", "setting": "endpoint: median survival time, dose: 500.0 mg/kg/injection, schedule: Q01DX Z (oral), vehicle: methylcellulose (MC)", "value": "155 % of control"}, {"measurement": "T/C", "setting": "[10]", "value": "122 % of control"}, {"measurement": "T/C", "setting": "endpoint: median survival time, dose: 600.0 mg/kg/injection, schedule: Q01DX Z (sc), vehicle: methylcellulose (MC)", "value": "105 % of control"}]}, {"compound": "C[C@H](CN1CC(=O)NC(=O)C1)N1CC(=O)NC(=O)C1", "values": [{"measurement": "T/C", "setting": "endpoint: median survival time, dose: 8.0 mg/kg/injection, schedule: Q01DX009 (ip), vehicle: water", "value": "104 % of control"}, {"measurement": "T/C", "setting": "endpoint: median survival time, dose: 16.0 mg/kg/injection, schedule: Q01DX009 (ip), vehicle: water", "value": "119 % of control"}, {"measurement": "T/C", "setting": "endpoint: median survival time, dose: 32.0 mg/kg/injection, schedule: Q01DX009 (ip), vehicle: water", "value": "119 % of control and 124 % of control"}, {"measurement": "T/C", "setting": "endpoint: median survival time, dose: 256.0 mg/kg/injection, schedule: Q01DX009 (ip), vehicle: water", "value": "118 % of control"}, {"measurement": "T/C", "setting": "endpoint: median survival time, dose: 512.0 mg/kg/injection, schedule: Q01DX009 (ip), vehicle: water", "value": "113 % of control"}]}]}
